Here are results for nine molecules from patent US20240124467A1, “FUSED PYRIMIDINE COMPOUNDS AS INHIBITORS OF MENIN-MLL INTERACTION” (Biomea Fusion, Inc., priority 2020, published 2024).

Type in all cases: cell-based
For assay [1], the system named is K-562. The assay can be described thus: Cell proliferation inhibition (CellTiter-Glo), K-562 cells. The note with it: Homo sapiens, K-562 (BCR-ABL). Summed up: (§1)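 Leukemia lines in RPMI-1640/10% FBS at 37° C. were exposed in duplicate to seven compound concentrations (5.00×10^−6 to 6.86×10^−9 M), with 0.2% DMSO as 100% proliferation. At day 4 cells were diluted 1:4 in fresh medium containing compound. Viability was read by CellTiter-Glo luminescence at day 4 and day 7.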

Assay [2] relates to MOLM-13. Nature of the assay: Cell proliferation inhibition (CellTiter-Glo), MOLM-13 cells. The conditions noted are these: Homo sapiens, MOLM-13 (MLL-AF9). A digest of the protocol:
as §1
A general note: In ATP-based viability assays light output follows the ATP content of the culture.

Assay [3] deals with MV4-11. The assay can be described thus: Cell proliferation inhibition (CellTiter-Glo), MV4-11 cells. The note with it: Homo sapiens, MV4-11 (MLL-AF4). Summed up:
as §1

In assay [4] the test system is OCI-AML3. The assay can be described thus: Cell proliferation inhibition (CellTiter-Glo), OCI-AML3 cells. The conditions noted are these: Homo sapiens. Here is the method: (§2) The present example evaluates the ability of compounds described herein, inhibitors of Menin/MLL interaction, to inhibit cell proliferation. The proliferation inhibitory effect was investigated in human MLL-leukemia cells selected on the bases of MLL fusion proteins and listed in the table below.
(§3) ATP is present in all metabolically active cells and is considered as a marker for cell viability and proliferation. The metabolic cell activity was determined using the CellTiter-Glo kit from Promega, an ATP monitoring system based on the production of luminescence by the reaction of ATP with added UltraGlo® recombinant luciferase (Kawano et al., 2016, PLOS One, 8:11(7):e0158888), according to the supplier's experimental recommendations. The assay is based on a 96 well plate format. All experiments were carried out in duplicate in one test occasion.
(§4) Test items were dissolved at 20 mM in DMSO with purity ≥99.9% (Sigma catalog no. D8418) and stored at −20° C. Cells were maintained in RPMI-1640 medium (Invitrogen catalog no. 618700) supplemented with 10% of Heat Inactivated FBS (Invitrogen catalog no. 10500) and 1% Pen-Strep (Invitrogen catalog no. 15140) and cultured at 37° C. in a humidified incubator with 5% CO2. Cell lines were grown in suspension and the cell density was maintained in a range of 5×10^4-1×10^6 viable cells/ml where possible. Cells were pelleted at 130 g×5 min.
(§5) Serial dilutions of compounds 1 to 3 in DMSO 100% were prepared starting from a 2.5 mM solutions (prepared by diluting 1:8 the 20 mM stock solution) to generate a 7 point concentration response curve (CRC). Seven concentrations of test compounds (e.g., 5.00×10^−6-1.67×10^−6-5.56×10^−7-1.85×10^−7-6.17×10^−8-2.06×10^−8-6.86×10^−9 M) were assessed in duplicate in an individual test occasion in parallel in the selected cell lines. KO-539 was used as a reference compound and tested in duplicate at seven similar concentrations. 100% of proliferation was represented by the untreated cells (0.2% DMSO).
(§6) Cell proliferation inhibition was monitored at both the following end points: Day 4 (T4) and Day 7 (T7). For the appropriate cell density during the exponential cell growth and re-supply with fresh compound solution at T4, cells were diluted (1:4) with fresh medium containing the compound concentration (1×).
(§7) For each plate to test, one 0.4 μL copy plate and four 0.3 μL copy plates were stamped into 96-well plates not treated for cell adhesion (Sarstedt—cat. no. 82.1581.001) by acoustic liquid handling (Echo) at a concentration which was 500 fold the final assay concentration. Stamped plates were stored at −20° C.
(§8) On Day 0, the day of the experiment cell line suspensions were counted by Cell Viability Analyser, Vi-CELL (Beckman Coulter AY15292), and diluted with fresh medium to obtain the following cell densities: K-562 500 c/ml, MOLM-13 1,000 c/ml, MV4-11 10,000 c/ml, OCI-AML-3 500 c/ml, and U-937 500-1,000 c/ml. 200 μL/well and 150 μL/well of cell suspension were added into the 0.4 μL/well and 0.3 μL/well compound plates, respectively. Cell plate containing 200 μL/well suspension were incubated at 37° C. in a humidified incubator with 5% CO2. From each well of the 150 μL/well cell assay plate, 100 μL were harvested and transferred into a 96-well Optiplate (Perkin Elmer, cat. no. 6005290). Cell viability was measured as described below.
(§9) On Day 4, 150p/well of fresh medium was added into a new 0.3 μL/well copy compound plates. From each well of the 200 μL/well cell assay plate, 100 μL was sampled for the cell viability measurement as described below. 50p was harvested and added to the 150p/well compound plate prepared as described in the first point to dilute 1:4 the cell suspension. The cell assay plate diluted and containing 200 μL/well suspension was incubated at 37° C. in a humidified incubator with 5% CO2.
(§10) On Day 4, 150p/well of fresh medium was added into a new 0.3 μL/well copy compound plates. […]

The subject of assay [5] is U-937. Nature of the assay: Cell proliferation inhibition (CellTiter-Glo), U-937 cells. The conditions noted are these: Homo sapiens, U-937 (MLL-wt), Table 3. As for the experimental part: as §2, §3, §4, §5, §6, §7, §8, §9, §10
Where [6] appears, read: K562, 96 h, 4 d, Table 3, read-out: K-562 IC50 μM 4 d.
[7] abbreviates: K562, 168 h, 7 d, Table 3, read-out: K-562 IC50 μM 7 d.
Where [8] appears, read: 96 h, 4 d, Table 3, read-out: MOLM13 μM 4 d.
The mark [9] stands for this setting: 168 h, 7 d, Table 3, read-out: MOLM13 μM 7 d.
Where [10] appears, read: 96 h, 4 d, Table 3, read-out: MV4-11 IC50 μM 4 d.
The mark [11] stands for this setting: 168 h, 7 d, Table 3, read-out: MV4-11 IC50 μM 7 d.
The mark [12] stands for this setting: OCI-AML-3, 96 h, 4 d, Table 3, read-out: OCI-AML3 IC50 μM 4 d.
Setting [13] is: OCI-AML-3, 168 h, 7 d, Table 3, read-out: OCI-AML3 IC50 μM 7 d.
The mark [14] stands for this setting: 96 h, 4 d, read-out: U-937 IC50 μM 4 d.
Setting [15] is: 168 h, 7 d, read-out: U-937 IC50 μM 7 d.
[16] abbreviates: K562, 96 h, Day 4, read-out: K-562 IC50 μM (Day 4).
The mark [17] stands for this setting: K562, 168 h, Day 7, read-out: K-562 IC50 μM (Day 7)*.
Where [18] appears, read: 96 h, Day 4, read-out: MOLM-13 Day IC50 μM (Day 4)*.
Where [19] appears, read: 168 h, Day 7, read-out: MOLM-13 Day IC50 μM (Day 7)*.
Setting [20] is: 96 h, Day 4, read-out: MV-4:11 IC50 μM (Day 4)*.
[21] abbreviates: 168 h, Day 7, read-out: MV-4:11 IC50 μM (Day 7)*.

Where two headings read alike, the source gives them in different places. Bounds are passed on as bounds.

In the case of `C=CC(=O)N(C)[C@@H]1CCCN(Cc2ccnc(C(=O)Nc3ccc(-c4cc5c(N6CCOCC6)ncnc5[nH]4)cc3)c2)C1` [Compound B0700-301, (R)-4-((3-(N-methylacrylamido)piperidin-1-yl)methyl)-N-(4-(4-morpholino-7H-pyrrolo[2,3-d]pyrimidin-6-yl)phenyl)picolinamide], the IC50 is 0.263 µM in assay [1] (setting [6]); 0.191 µM in assay [1] (setting [7]); 0.056 µM in assay [2] (setting [8]); 0.044 µM in assay [2] (setting [9]); 0.085 µM in assay [3] (setting [10]); 0.069 µM in assay [3] (setting [11]). For the same molecule, the IC50 worked out at 0.066 µM in assay [4] (setting [12]), 0.028 µM in assay [4] (setting [13]), 0.105 µM in assay [5] (setting [14]) and 0.026 µM in assay [5] (setting [15]).
With `C=CC(=O)N1CCCC(Nc2ccnc(C(=O)Nc3ccc(-c4cc5c(N6CCOCC6)ncnc5[nH]4)cc3)c2)C1` (stereo not drawn) [Compound B0700-302, 4-((1-acryloylpiperidin-3-yl)amino)-N-(4-(4-morpholino-7H-pyrrolo[2,3-d]pyrimidin-6-yl)phenyl)picolinamide], the IC50 amounted to 0.17 µM in assay [1] (setting [6]); 0.138 µM in assay [1] (setting [7]); 0.063 µM in assay [2] (setting [8]); 0.05 µM in assay [2] (setting [9]); 0.098 µM in assay [3] (setting [10]); 0.089 µM in assay [3] (setting [11]). Also, the IC50 in assay [4] (setting [12]) was determined as 0.043 µM; in assay [4] (setting [13]) it was 0.044 µM; in assay [5] (setting [14]), 0.072 µM; in assay [5] (setting [15]) it was 0.037 µM.
As to `C=CC(=O)N1CCN(CCc2ccnc(C(=O)Nc3ccc(-c4cc5c(N6CCOCC6)ncnc5[nH]4)cc3)c2)CC1` [Compound B0700-303, 4-(2-(4-acryloylpiperazin-1-yl)ethyl)-N-(4-(4-morpholino-7H-pyrrolo[2,3-d]pyrimidin-6-yl)phenyl)picolinamide], the IC50 in assay [1] (setting [6]) turned out to be 0.085 µM; in assay [1] (setting [7]), 0.028 µM; in assay [2] (setting [8]) it was 0.049 µM; in assay [2] (setting [9]), 0.034 µM; in assay [3] (setting [10]), 0.051 µM; in assay [3] (setting [11]) it was 0.05 µM. The IC50 in assay [4] (setting [12]) turned out to be 0.076 µM; in assay [4] (setting [13]), 0.05 µM; in assay [5] (setting [14]) it was 0.043 µM; in assay [5] (setting [15]), 0.022 µM.
On to `C=CC(=O)N[C@@H]1CCCN(Cc2ccnc(C(=O)NC3CCN(c4nc5c(N6CCOCC6)ncnc5[nH]4)CC3)c2)C1` [Compound B0700-308, (R)-4-((3-acrylamidopiperidin-1-yl)methyl)-N-(1-(6-morpholino-9H-purin-8-yl)piperidin-4-yl)picolinamide], for which the IC50 in assay [1] (setting [6]), in assay [1] (setting [7]), in assay [2] (setting [8]), in assay [2] (setting [9]), in assay [3] (setting [10]) and in assay [3] (setting [11]) was > 5 µM each time. Also, the IC50 in assay [4] (setting [12]), in assay [4] (setting [13]), in assay [5] (setting [14]) and in assay [5] (setting [15]) was > 5 µM throughout.
In the case of `O=C(/C=C/CN1CC(F)C1)Nc1ccc(CC(=O)Nc2ccc(-c3cc4c(N5CCOCC5)ncnc4[nH]3)cc2)cc1` [Compound B0700-312, (E)-4-(3-fluoroazetidin-1-yl)-N-(4-(2-((4-(4-morpholino-7H-pyrrolo[2,3-d]pyrimidin-6-yl)phenyl)amino)-2-oxoethyl)phenyl)but-2-enamide], the IC50 in assay [1] (setting [6]) is > 5 µM; in assay [1] (setting [7]), > 5 µM; in assay [2] (setting [8]) it was 2.34 µM; in assay [2] (setting [9]) it was 0.537 µM; in assay [3] (setting [10]) it was 1.62 µM; in assay [3] (setting [11]) it was 1 µM. For the same molecule, the IC50 in assay [4] (setting [12]) is > 5 µM; in assay [4] (setting [13]) it was 1.95 µM; in assay [5] (setting [14]), > 5 µM; in assay [5] (setting [15]), > 5 µM.
For the molecule `C=CC(=O)Nc1ccc(CC(=O)Nc2ccc(-c3cc4c(C)ncnc4[nH]3)cc2)cc1` [Compound B0700-313, N-(4-(2-((4-(4-methyl-7H-pyrrolo[2,3-d]pyrimidin-6-yl)phenyl)amino)-2-oxoethyl)phenyl)acrylamide], the IC50 in assay [1] (setting [6]) was > 5 µM; in assay [1] (setting [7]), 0.288 µM; in assay [2] (setting [8]) it was > 5 µM; in assay [2] (setting [9]), 3.31 µM; in assay [3] (setting [10]), > 5 µM; in assay [3] (setting [11]), > 5 µM. Besides, the IC50 is > 5 µM in assay [4] (setting [12]), 0.407 µM in assay [4] (setting [13]), > 5 µM in assay [5] (setting [14]) and 1.26 µM in assay [5] (setting [15]).
As to `C=CC(=O)N[C@H]1CCN(c2cccc(C(C)(C)C(=O)Nc3ccc(-c4cc5c(N6CCOCC6)ncnc5[nH]4)cc3)c2)C1` [Compound B0700-617, (S)—N-(1-(3-(2-methyl-1-((4-(4-morpholino-7H-pyrrolo[2,3-d]pyrimidin-6-yl)phenyl)amino)-1-oxopropan-2-yl)phenyl)pyrrolidin-3-yl)acrylamide], the IC50 in assay [1] (setting [16]) stood at 4.55 µM; in assay [1] (setting [17]) it was 4.86 µM; in assay [2] (setting [18]), 0.447 µM; in assay [2] (setting [19]), 0.51 µM; in assay [3] (setting [20]) it was 0.477 µM; in assay [3] (setting [21]) it was 0.41 µM.
In the case of `C=CC(=O)N[C@H]1CCN(c2cccc(CC(=O)Nc3ccc(-c4cc5c(N6CCOCC6)ncnc5[nH]4)cc3)c2)C1` [Compound B0700-618, (S)—N-(1-(3-(2-((4-(4-morpholino-7H-pyrrolo[2,3-d]pyrimidin-6-yl)phenyl)amino)-2-oxoethyl)phenyl)pyrrolidin-3-yl)acrylamide], the IC50 amounted to 8.83 µM in assay [1] (setting [16]); 10.1 µM in assay [1] (setting [17]); 1.27 µM in assay [2] (setting [18]); 1.47 µM in assay [2] (setting [19]); 0.786 µM in assay [3] (setting [20]); 0.78 µM in assay [3] (setting [21]).
`C=CC(=O)N[C@@H]1CCCN(Cc2ccnc(C(=O)Nc3ccc(-c4cc5c(C67CCOCC6C7)ncnc5[nH]4)cc3)c2)C1` (stereo partly drawn) [Compound B0700-706]: the values for the IC50 in assay [1] (setting [16]), in assay [2] (setting [18]) and in assay [3] (setting [20]) were 1.48 µM, 0.54 µM and 0.47 µM, respectively.
